Earlier results on five compounds are cited in US8859001B2, “Fenoldopam formulations and pro-drug derivatives” (priority 2007, dated 2014).

Series [1] relates to human lymphoma and leukemia lines (Jurkat, HuT-78, K-562, Daudi, Raji). The conditions noted are these: for effectiveness in killing lymphoma and leukemia: selective dopamine D1/5 receptor agonists tested.
Series [2] concerns TCR-activated human normal peripheral T-cells.
In series [3] the test system is resting (i.e., not TCR-activated) human normal peripheral T-cells. The conditions noted are these: in vitro.
For a further series, the system named is patients. The conditions noted are these: clinical use.
For series [4] the following is noted: IV infusion.
A further series relates to mice. The following applies: mouse, in vivo, po.

Where a name gives a salt, the structure may show the parent alone. Read-outs that look alike come from different tables or passages of the source.

Turning to `Cl.NC[C@@H]1O[C@H](C23CC4CC(CC(C4)C2)C3)Cc2c1ccc(O)c2O` [A 77636 hydrochloride, (1R-cis)-1-(aminomethyl)-3,4-dihydro-3-tricyclo[3.3.1.13,7]dec-1-yl-[1H]-2-benzopyran-5,6-diol hydrochloride], in series [1] (compared among dopamine receptor agonists), the “relative effectiveness as cancer cell killer” value is “the most effective cancer killers”. The “effectiveness in killing lymphoma and leukemia” value in [1] is “effective in killing lymphoma and leukemia”. Also, in series [2] (compared among highly selective D1R agonists), the “relative effectiveness as killer of TCR-activated T-cells” value was “the most effective killers of TCR-activated T-cells”.
Broadly, the solubility is the concentration that dissolves in the medium under given conditions. For the compound `Oc1ccc(C2CNCCc3c2cc(O)c(O)c3Cl)cc1` (racemic) [Fenoldopam mesylate, 6-chloro-2,3,4,5-tetrahydro-1-(4-hydroxyphenyl)-1H-3-benzazepine-7,8-diol, methanesulfonate], the solubility runs as follows: (HCl/KCl buffer pH 1.5) 9100 µg/mL; (buffer pH 6.8) 130 µg/mL; (pH 7.5) 60 µg/mL. Also, the solubility in ethanol entry (ethanol) is “sparingly soluble”. Further, the solubility in methanol result (methanol) is given as “sparingly soluble”. In addition, the “solubility in propylene glycol” value (propylene glycol) is listed as “soluble”. Besides, the solubility in water entry (water) was “sparingly soluble”. Besides, the “time to start of measurable cell death after exposure” value in series [1] is 1 to 60 min. Besides, in [1] (1 mM-0.01 mM fenoldopam mesylate, five lymphoma/leukemia lines), the “death of cancer cells on in vitro exposure” value is reported as “death of all, or the vast majority of, these cancer cells”. For the same compound, the “death of cells (number of live and dead cells)” value in series [1] (cancer cells, after 72 hr, concentrations within 0.1 mM-0.1 nM) is on record as “over 98%”; in [2] (normal TCR-activated T-cells, after 72 hr, concentrations within 0.1 mM-0.1 nM), “over 98%”. In addition, in series [2] (in vitro), the “killing of TCR-activated T-cells” value is on record as “kills potently a substantial proportion”. Further, the affinity entry with β adrenoceptors, in the series with muscarinic receptors, in the series on D2-like receptors, in the series with α1 adrenoceptors, in the series on 5HT1 receptors and in the series on 5HT2 receptors was “no significant affinity” each time. The affinity entry in the series with α2-adrenoceptors is “moderate affinity”. Further, the “effect on resting T-cells” value in series [3] is listed as “hardly affecting”. In addition, the “patients reporting the major side effects (headache, flushing and nausea)” value in the series with patients is given as at most 10%. Also, the “half life T1/2” value in series [4] is reported as around 5 min.
For the compound `Br.Oc1cc2c(cc1O)C(c1ccccc1)CNCC2` (racemic) [SKF 38393 hydrobromide, (±)-1-phenyl-2,3,4,5-tetrahydro-(1H)-3-benzazepine-7,8-diol hydrobromide], the “effectiveness in killing lymphoma and leukemia” value in series [1] was “effective in killing lymphoma and leukemia”.
For `Cl.NC[C@@H]1O[C@H](c2ccccc2)Cc2c1ccc(O)c2O` (racemic) [A 68930 hydrochloride, cis-(±)-1-(aminomethyl)-3,4-dihydro-3-phenyl-1H-2-benzopyran-5,6-diol hydrochloride], the “effectiveness in killing lymphoma and leukemia” value in series [1] is “effective in killing lymphoma and leukemia”.
For `CCOC(=O)C(C)O` (stereo not shown) [Ethyl lactate, 2-hydroxypropanoic acid ethyl ester], the LD50 result with mice is “higher than 5 g/kg”.
